Measurements as given in patent US7569208B2, “Diagnostic agents for pancreatic exocrine function” (Tokyo Gas Company Limited, priority 1999, dated 2009).

Key:
[1] = Solubility / precipitation of phenylalanine in distilled water with or without hydroxypropyl-β-cyclodextrin; assay type: physicochemical; settings: 299 mg of [1-^13C]-phenylalanine in 5 ml distilled water, dissolved at 85° C., cooled to 25° C.
From the text: The increase of solubility of phenylalanine in the presence of hydroxypropyl-β-cyclodextrin confirmed the formation of (1-^13C]-phenylalanine/hydroxypropyl-β-cyclodextrin inclusion complex.

[2] = at 25° C.; cited from earlier work
[3] = system: pancreatic exocrine function; assay: 13C breath test after oral administration in olive oil to chronic pancreatitis and control rats (GC-MS); assay type: in vivo, rat
Method: A ^13C-FDL breath test was carried out wherein ^13C-FDL was orally administered to chronic pancreatitis and control rats and the time course of the ^13C concentration in the exhaled CO2 after the administration was measured.
(§1) According to Mundlos et al. (Mundlos et al., Pancreas, 1:29 (1986)), the chronic pancreatitis rats were prepared by injecting oleic acid into the pancreatic duct of Wistar male rats of 5 weeks old and kept for 3 weeks. Rats in which midline incision was made on the abdomen were used as the control.
The chronic pancreatitis and control rats of 8 weeks old, which fasted overnight, were fixed without anesthesia in a rat holder for a microwave irradiation apparatus. The breath was collected at a rate of about 100 to 300 ml/min using a CO2 meter (CAPSTER-100) to monitor the CO2 concentration. […]
The breath was taken out as a sample immediately before the administration and at every hour for 5 hours after the administration and the ^13C concentration in the exhaled CO2 was analyzed by a gas chromatography-mass spectrometer (GC-MS). The analytic conditions for GC-MS are as follows. The CO2 concentration in the collected breath was held at 3±0.5%. GC-MS conditions:
Assuming that the isotopic abundance of oxygen is the same as that which is naturally occurring, ^13C concentration was calculated from the peak areas of the ions m/z=45 and 46 according to the following equation: […]
Δ^13C (‰) was calculated from the ^13C concentration in the exhaled CO2 at each time point (^13C tmin) and the ^13C concentration in standard CO2 (^13C std) according to the following equation: Δ^13C (‰)=[(^13C tmin−^13C 0 min)/^13C std]×1000 12.2 Results

[4] = system: pancreatic exocrine function; assay: 13C breath test after oral administration to oleic acid-induced chronic pancreatitis and control rats (13CO2 analyzer); assay type: in vivo, rat; settings: for Δ^13C (‰) value in exhaled CO2: 75 mg/kg oral, at 10 minutes
Method: ^13C-labeled cyclodextrin breath test was carried out wherein ^13C-labeled cyclodextrin prepared in Example 1 was orally administered to chronic pancreatitis and control rats and the time course of the ^13C concentration in the exhaled CO2 after the administration was measured.
as §1
The chronic pancreatitis and control rats of 8 weeks old, which fasted overnight, were fixed without anesthesia in a rat holder for a microwave irradiation apparatus. The breath was collected at a rate of about 100 to 300 ml/min using a stroke pump (Variable Stroke Pump VS-500, Shibata Kagaku Kogyo) and introduced directly to a flow cell of a ^13CO2 analyzer EX-130S (Nihon Bunko) to measure ^13C atom % and the carbon dioxide gas concentration continuously. A Perma Pure drier (MD-050-12P, Perma Pure Inc.) was set between the rat holder and the stroke pump to remove out water vapor in the breath. After the CO2 concentration was stabilized, the rat was once removed out of the rat holder and an aqueous solution of ^13C-labeled cyclodextrin was administered (75 mg/kg, 5 ml/kg) into the stomach using an oral sonde.
Δ^13C (‰) was calculated from the ^13C concentration in the exhaled CO2 at each time point (^13C tmin) and the ^13C concentration in standard CO2 (^13C std) according to the following equation: Δ^13C (‰)=[(^13C tmin−^13C 0 min)/^13C std]×1000

## N[C@@H](C[13c]1ccccc1)C(=O)O [(1-^13C]-phenylalanine, [1-^13C]-phenylalanine]
[1]
  precipitation of phenylalanine when the solution was allowed to cool to 25° C.: phenylalanine was precipitated

## N[C@@H](Cc1ccccc1)C(=O)O [phenylalanine]
[2]
  solubility: 148 mg/5 ml

## ^13C-dilaurylfluorescein [^13C-FDL]
[3]; 160 mg/kg oral in olive oil, at each time point for 5 hours (FIG. 10)
  Δ^13C (‰) values of chronic pancreatitis rats compared with control rats: smaller than the control rats
[3]; chronic pancreatitis rats, 160 mg/kg oral in olive oil, at 3 hours
  Δ^13C (‰) value in exhaled CO2: 42.0±21.3 ‰
[3]; chronic pancreatitis rats, 160 mg/kg oral in olive oil, at 5 hours
  Δ^13C (‰) value in exhaled CO2: 95.4±47.1 ‰
[3]; control rats, 160 mg/kg oral in olive oil, at 3 hours
  Δ^13C (‰) value in exhaled CO2: 153.3±22.8 ‰
[3]; control rats, 160 mg/kg oral in olive oil, at 5 hours
  Δ^13C (‰) value in exhaled CO2: 236.3±12.4 ‰

## ^13C-dioctanoylfluorescein [^13C-FDO]
[3]; 200 mg/kg oral in olive oil, at each time point for 5 hours (FIG. 11)
  Δ^13C (‰) values of chronic pancreatitis rats compared with control rats: smaller than the control rats
[3]; chronic pancreatitis rats, 200 mg/kg oral in olive oil, at 1 hour
  Δ^13C (‰) value in exhaled CO2: 2.7±3.8 ‰
[3]; chronic pancreatitis rats, 200 mg/kg oral in olive oil, at 3 hours
  Δ^13C (‰) value in exhaled CO2: 18.4±12.1 ‰
[3]; chronic pancreatitis rats, 200 mg/kg oral in olive oil, at 4 hours
  Δ^13C (‰) value in exhaled CO2: 15.2±13.4 ‰
[3]; chronic pancreatitis rats, 200 mg/kg oral in olive oil, at 5 hours
  Δ^13C (‰) value in exhaled CO2: 20.6±11.2 ‰
[3]; control rats, 200 mg/kg oral in olive oil, at 1 hour
  Δ^13C (‰) value in exhaled CO2: 46.3±11.5 ‰
[3]; control rats, 200 mg/kg oral in olive oil, at 3 hours
  Δ^13C (‰) value in exhaled CO2: 60.6±12.7 ‰
[3]; control rats, 200 mg/kg oral in olive oil, at 4 hours
  Δ^13C (‰) value in exhaled CO2: 88.7±8.2 ‰
[3]; control rats, 200 mg/kg oral in olive oil, at 5 hours
  Δ^13C (‰) value in exhaled CO2: 73.6±14.1 ‰

## galactosyl ^13C-maltohexaose [galactosyl ^13C-labeled maltohexaose]
[4]; chronic pancreatitis rats
  Δ^13C (‰) value in exhaled CO2: 18.9 ± 17 ‰
[4]; control rats
  Δ^13C (‰) value in exhaled CO2: 95.6 ± 42.4 ‰
[4]; galactosyl ^13C-maltohexaose 75 mg/kg oral, for 30 minutes (FIG. 4)
  increase in Δ^13C (‰) value of chronic pancreatitis rats compared with control rats: smaller than the control rats
